This note sets out measurements from PMC8748874, “Structures of the human peroxisomal fatty acid transporter ABCD1 in a lipid environment” (Communications Biology, 2022).

Holding throughout (experiment): molybdate-based colorimetric ATPase assay
What all share (type): biochemical

For experiment [1], the target named is T1, ABCD1 (ALDP) (Homo sapiens, UniProt P33897).
T1 construct: full length, codon-optimized synthetic gene; C-terminal eYFP-Rho1D4 tag cut off with 3C protease; HEK293 Flp-In TREX; homodimer; in DDM/CHS, liposomes or MSP1D1 nanodiscs
T1 sequence (P33897 whole entry): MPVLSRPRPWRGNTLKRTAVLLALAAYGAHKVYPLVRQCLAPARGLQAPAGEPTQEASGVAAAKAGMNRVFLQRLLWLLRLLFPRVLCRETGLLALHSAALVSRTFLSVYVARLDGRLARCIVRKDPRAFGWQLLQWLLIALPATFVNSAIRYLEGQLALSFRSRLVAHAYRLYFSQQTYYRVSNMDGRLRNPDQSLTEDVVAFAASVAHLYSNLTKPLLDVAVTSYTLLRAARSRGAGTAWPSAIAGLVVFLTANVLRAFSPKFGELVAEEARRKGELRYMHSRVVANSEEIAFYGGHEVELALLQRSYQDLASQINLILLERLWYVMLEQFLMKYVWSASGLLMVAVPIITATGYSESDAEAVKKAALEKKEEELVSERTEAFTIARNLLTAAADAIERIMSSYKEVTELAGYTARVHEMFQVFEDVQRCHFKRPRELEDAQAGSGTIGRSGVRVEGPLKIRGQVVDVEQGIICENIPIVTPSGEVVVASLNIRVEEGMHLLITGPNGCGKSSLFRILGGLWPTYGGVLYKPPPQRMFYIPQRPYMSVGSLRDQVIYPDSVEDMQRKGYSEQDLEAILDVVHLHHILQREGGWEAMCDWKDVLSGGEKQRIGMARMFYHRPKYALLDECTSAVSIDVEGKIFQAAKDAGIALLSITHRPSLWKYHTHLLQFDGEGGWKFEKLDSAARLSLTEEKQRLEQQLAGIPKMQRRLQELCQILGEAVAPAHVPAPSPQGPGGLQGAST
The conditions noted are these: DDM/CHS detergent; 5 mM ATP, 10 mM MgCl2, pH 7.5, 37 °C.

In experiment [2] the target is T1, ABCD1 (ALDP). The conditions noted are these: DDM/CHS detergent; 5 mM ATP, 10 mM MgCl2, pH 7.5, 37 °C; with C24:0-CoA; suggested competition for same site; no stimulation alone.
For experiment [3], the target named is T1, ABCD1 (ALDP). The note with it: 10 mM MgCl2, pH 7.5, 37 °C.
For experiment [4], the target named is T1, ABCD1 (ALDP). The conditions noted are these: DDM/CHS detergent; 5 mM ATP, 10 mM MgCl2, pH 7.5, 37 °C. The source holds these as a separate data set.

With `CCCCCCCC/C=C\CCCCCCCC(=O)SCCNC(=O)CCNC(=O)[C@H](O)C(C)(C)COP(=O)(O)OP(=O)(O)OC[C@H]1O[C@@H](n2cnc3c(N)ncnc32)[C@H](O)[C@@H]1OP(=O)(O)O` [C18:1-CoA], at ABCD1 (ALDP) [1], the ATPase rate stimulation result was “we also observed ATPase rate stimulation by C18:1-CoA”. Consider `CC(=O)SCCNC(=O)CCNC(=O)[C@H](O)C(C)(C)COP(=O)(O)OP(=O)(O)OC[C@H]1O[C@@H](n2cnc3c(N)ncnc32)[C@H](O)[C@@H]1OP(=O)(O)O` [acetyl-CoA], for which the “decrease of C24:0-CoA stimulated ATPase” value at ABCD1 (ALDP) [2] is reported as “it can partially inhibit ATPase stimulation by C24:0-CoA”. Regarding `[O]=[V]([OH])([OH])[OH]` [sodium orthovanadate], the “inhibition of ATPase activity at 5 mM” value on ABCD1 (ALDP) [3] was “ATP hydrolysis was sensitive to inhibition by sodium orthovanadate (VO4)”. As for `CCCCCCCCCCCCCCCCCCCCCCCCCC(=O)SCCNC(=O)CCNC(=O)[C@H](O)C(C)(C)COP(=O)(O)OP(=O)(O)OC[C@H]1O[C@@H](n2cnc3c(N)ncnc32)[C@H](O)[C@@H]1OP(=O)(O)O` [C26:0-CoA], the “ATPase rate stimulation at 0.1 and 1 mM” value at ABCD1 (ALDP) [4] was “we observed ATPase rate stimulation for C24:0-CoA and C26:0-CoA”.

Turning to `Nc1ncnc2c1ncn2[C@@H]1O[C@H](COP(=O)(O)OP(=O)(O)OP(O)(O)=S)[C@@H](O)[C@H]1O` [ATPγS], at ABCD1 (ALDP) [3], the “inhibition of ATPase activity at 5 mM” value is given as “sensitive to inhibition by sodium orthovanadate (VO4) or the non-hydrolysable ATP analog ATPγS”. For the compound `CCCCCCCCCCCCCCCCCCCCCCCC(=O)SCCNC(=O)CCNC(=O)[C@H](O)C(C)(C)COP(=O)(O)OP(=O)(O)OC[C@H]1O[C@@H](n2cnc3c(N)ncnc32)[C@H](O)[C@@H]1OP(=O)(O)O` [C24:0-CoA], at ABCD1 (ALDP) [4], the “ATPase rate stimulation at 0.1 and 1 mM” value is “we observed ATPase rate stimulation for C24:0-CoA and C26:0-CoA”.
